Assay: xn = mol fraction of the nth substance listed
Settings: 100 kPa

CCCCCCCCN1CCCC1=O + CCCC[n+]1ccn(C)c1.O=S(=O)([N-]S(=O)(=O)C(F)(F)F)C(F)(F)F
speed of sound [m/s]
Settings	x1 = 0.1125	x1 = 0.2205	x1 = 0.3048	x1 = 0.3915	x1 = 0.5011	x1 = 0.5983	x1 = 0.7076	x1 = 0.7976	x1 = 0.8911	x1 = 1
298.15 K	1234.8	1244.9	1255.2	1268.2	1288.3	1310.3	1341	1371.6	1406.7	1450.2
303.15 K	–	1233.4	1243.4	–	1275.5	1297	–	1356.6	1390.5	1432.6
308.15 K	1212.7	1222.1	1231.6	–	–	1283.7	1312.7	1341.5	1374.3	–
313.15 K	1201.8	–	1219.9	1231.6	1250	1270.4	1298.7	1326.5	1358.3	1398
318.15 K	1190.9	1199.6	1208.3	1219.6	1237.5	1257.3	1284.9	1311.7	1342.4	1380.9
323.15 K	1180.1	1188.4	1196.8	1207.6	1224.9	1244.2	1271.2	1297.1	–	1364

CCCC[n+]1ccn(C)c1.O=S(=O)([N-]S(=O)(=O)C(F)(F)F)C(F)(F)F + CCCCCCCCN1CCCC1=O
x2 = 0
Settings	speed of sound [m/s]
298.15 K	1227.9
303.15 K	1216.8
308.15 K	1205.8
313.15 K	1195
318.15 K	1184.2
323.15 K	1173.6
